Active and inactive are the calls of the source. No cut-off for these calls is given here.
Columns and labels:
[1] = Elimination rate constant in Sprague-Dawley rat at 14.4 mg/kg, po by LC-MS/MS analysis; format: ADME, organism-based; settings: in vivo
Rattus norvegicus [2] = assay: (§1) Anti-hypersensitive activity in MCT-induced pulmonary arterial hypertension Sprague-Dawley rat model assessed as reduction in cardiomyocyte hypertrophy by measuring cardiac fibrosis at 43.3 mg/kg, po administered daily for 14 days starting from 14 days post-MCT challenge and measured post-last dose by Masson's trichrome staining-based microscopic analysis (reference value: 11.74 +/- 3.24 %); format: functional; parameters: scale not given: the % may be the effect or the level left
[3] = Plasma concentration in Sprague-Dawley rat assessed as fasudil level at 14.4 mg/kg, po measured at 0.5 hrs by LC-MS/MS analysis; format: ADME, organism-based; settings: in vivo
Rattus norvegicus [4] = assay: Anti-hypersensitive activity in MCT-induced pulmonary arterial hypertension Sprague-Dawley rat model assessed as pulmonary artery medial thickness at 43.3 mg/kg, po administered daily for 14 days starting from 14 days post-MCT challenge and measured post-last dose by hematoxylin and eosin staining-based microscopic analysis (reference value: […] +/- […]); format: functional
Rattus norvegicus [5] = assay: as §1, with “cross-sectional area of cardiomyocyte” for “cardiac fibrosis”, “hematoxylin and eosin” for “Masson's trichrome”, “418” for “11.74”, “50.88 micrometer2)” for “3.24 %)”; format: functional
[6] = AUMC (0 to infinity) in Sprague-Dawley rat at 14.4 mg/kg, po by LC-MS/MS analysis; format: ADME, organism-based; settings: in vivo
Rattus norvegicus [7] = assay: (§2) Anti-hypersensitive activity in MCT-induced pulmonary arterial hypertension Sprague-Dawley rat model assessed as mean pulmonary artery pressure at 43.3 mg/kg, po administered daily for 14 days starting from 14 days post-MCT challenge and measured post-last dose by pressure transducer-coupled polygraphy (reference value: 36 +/- 2.83 mmHg); format: functional
Rattus norvegicus [8] = assay: Hemodynamic activity in Sprague-Dawley rat assessed as effect on mean systemic arterial pressure at 43.3 mg/kg, po administered daily for 2 weeks by pressure transducer-coupled polygraphy; format: ADME, organism-based; settings: in vivo, 336 h
[9] = Cardiotoxicity in Sprague-Dawley rat assessed as effect on cross-sectional area of cardiomyocyte at 43.3 mg/kg, po administered daily for 2 weeks by hematoxylin and eosin staining-based microscopic analysis (reference value: 209.53 +/- 26.44 micrometer2); format: toxicity, organism-based; settings: in vivo, 336 h
[10] = AUC (0 to infinity) in Sprague-Dawley rat at 14.4 mg/kg, po by LC-MS/MS analysis; format: ADME, organism-based; parameters: dose 14.4 mg/kg, time infinity, route oral; settings: in vivo
Rattus norvegicus [11] = assay: as §1, with “lung” for “reduction in cardiomyocyte hypertrophy by measuring cardiac”, “6.12” for “11.74”, “1.66%)” for “3.24 %)”; format: functional
Rattus norvegicus [12] = assay: Hemodynamic activity in Sprague-Dawley rat assessed as effect on mean pulmonary artery pressure at 43.3 mg/kg, po administered daily for 2 weeks by pressure transducer-coupled polygraphy; format: ADME, organism-based; settings: in vivo, 336 h
[13] = Plasma concentration in Sprague-Dawley rat assessed as fasudil level at 14.4 mg/kg, po measured at 2 hrs by LC-MS/MS analysis; format: ADME, organism-based; settings: in vivo
[14] = Cmax in Sprague-Dawley rat at 14.4 mg/kg, po by LC-MS/MS analysis; format: ADME, organism-based; parameters: dose 14.4 mg/kg, route oral; settings: in vivo
[15] = Plasma concentration in Sprague-Dawley rat assessed as fasudil level at 14.4 mg/kg, po measured at 0.25 hrs by LC-MS/MS analysis; format: ADME, organism-based; settings: in vivo
[16] = MRT in Sprague-Dawley rat at 14.4 mg/kg, po by LC-MS/MS analysis; format: ADME, organism-based; settings: in vivo
[17] = Tmax in Sprague-Dawley rat at 14.4 mg/kg, po by LC-MS/MS analysis; format: ADME, organism-based; settings: in vivo
[18] = AUMC (0 to t) in Sprague-Dawley rat at 14.4 mg/kg, po by LC-MS/MS analysis; format: ADME, organism-based; settings: in vivo
[19] = Plasma concentration in Sprague-Dawley rat assessed as fasudil level at 14.4 mg/kg, po measured at 4 hrs by LC-MS/MS analysis; format: ADME, organism-based; settings: in vivo
Rattus norvegicus [20] = assay: as §2, with “right ventricular systolic” for “mean pulmonary artery”, “59.06” for “36”, “3.26” for “2.83”; format: functional
[21] = AUC (0 to t) in Sprague-Dawley rat at 14.4 mg/kg, po by LC-MS/MS analysis; format: ADME, organism-based; settings: in vivo
Rattus norvegicus [22] = assay: Hemodynamic activity in Sprague-Dawley rat assessed as effect on right ventricular hypertrophy index at 43.3 mg/kg, po administered daily for 2 weeks by pressure transducer-coupled polygraphy; format: ADME, organism-based; settings: in vivo, 336 h
[23] = Cardiotoxicity in Sprague-Dawley rat assessed as cardiac fibrosis at 43.3 mg/kg, po administered daily for 2 weeks by hematoxylin and eosin staining-based microscopic analysis (reference value: 2.99 +/- 1.34 %); format: toxicity, organism-based; settings: in vivo, 336 h
[24] = Plasma concentration in Sprague-Dawley rat assessed as fasudil level at 14.4 mg/kg, po measured at 1 hr by LC-MS/MS analysis; format: ADME, organism-based; settings: in vivo
Rattus norvegicus [25] = assay: Hemodynamic activity in Sprague-Dawley rat assessed as effect on right ventricular systolic pressure at 43.3 mg/kg, po administered daily for 2 weeks by pressure transducer-coupled polygraphy; format: ADME, organism-based; settings: in vivo, 336 h
Rattus norvegicus [26] = assay: Reversal of MCT-induced Sprague-Dawley rat model of elastic fiber hyperplasia at 43.3 mg/kg, po administered daily for 14 days starting from 14 days post-MCT challenge and measured post-last dose by elastic fibres staining-based microscopic analysis; format: functional, organism-based

O=C(O)C(Cl)Cl.O=S(=O)(c1cccc2cnccc12)N1CCCNCC1
k el [1]: 0.000219 s⁻¹ | Activity (Rattus norvegicus [2]): 3.69% | Cp [3]: 55.5 ng/mL | Activity (Rattus norvegicus [4]): 0.2 | Activity (Rattus norvegicus [5]): 282.4 um2 | AUMC [6]: 160 hr.hr.ng/ml | Activity (Rattus norvegicus [7]): 25.67 mmHg | Activity (Rattus norvegicus [8]): Non-Toxic | Activity [9]: 190.6 um2 | AUC(0-inf) [10]: 117 ng·h/mL | Activity (Rattus norvegicus [11]): 6.12% | Activity (Rattus norvegicus [12]): Non-Toxic | Cp [13]: 18.4 ng/mL | Cmax [14]: 113 ng/mL | Cp [15]: 113 ng/mL | MRT [16]: 77.4 min | Tmax [17]: 15 min | AUMCt [18]: 119 hr.hr.ng/ml | Cp [19]: 4.46 ng/mL | Activity (Rattus norvegicus [20]): 49.54 mmHg | AUC(0-t) [21]: 109 ng·h/mL | Activity (Rattus norvegicus [22]): Non-Toxic | Activity [23]: 2.25% | Cp [24]: 38 ng/mL | Activity (Rattus norvegicus [25]): Non-Toxic

O=S(=O)(c1cccc2cnccc12)N1CCCNCC1
Activity (Rattus norvegicus [26]): Active

From ChEMBL document CHEMBL4340557, “Fasudil dichloroacetate (FDCA), an orally available agent with potent therapeutic efficiency on monocrotaline-induced pulmonary arterial hypertension rats” (Bioorg Med Chem Lett, 2019)
